The values that follow come from US20200353438A1, “METHOD OF FABRICATING CELL ARRAYS AND USES THEREOF” (StemoniX Inc., priority 2014, published 2020).

Molecules are shown by their SMILES.

The test system of the test is beating H9 embryonic stem cell derived cardiomyocytes. Nature of the test: Drug dosing of beating cardiomyocyte hydrogel array, observed by camera. Format: cell-based. The conditions noted are these: 1×16 GelMa array after 3 days incubation, visual camera observation. The protocol: In one example, a Labcyte Echo Model 555 nano liter sonic dispensing system was used to deliver 2 heart drugs, Satolol an Antiarrhythmic drug and Isoproteronol a […], to the fabricated array. The drugs were diluted to 2.25 uM in cell media nutrient solution to prevent dehydration. The Echo 555 liquid handler revolutionizes liquid handling with acoustic energy. Sound waves eject precisely sized droplets from a source onto a microplate, slide or other surface suspended above the source. […] Fluids are transferred in nanoliter increments. Larger volumes are transferred at the rate of hundreds of droplets per second. By using this non contact method it minimizes any contact that could damage or kill the cells as found in other dispensing methods. It also allows for the use of very small quantities thus allowing users to screen molecules that are scarce or difficult to manufacture thus reducing cost. In addition, the X and Y position of the dispensing head can be precisely located over the N×N array location of interest thereby allowing different locations to have a drug of interest administered.
beating H9 embryonic stem cell derived cardiomyocytes were used on day 25 of differentiation. After disassociation a vial with 1 mL of suspension was produced. […] Within those it was determined that 8.38×10^5 live cells were present with tryptan blue. […]

Regarding `CC(C)NCC(O)c1ccc(O)c(O)c1` (centres unmarked) [Isoproteronol], the “effect on refectory period (pause in beating) of irregularly beating heart cells” value is “removed the refectory period (pause in beating) of some irregularly beating heart cells”. With `CC(C)NCC(O)c1ccc(NS(C)(=O)=O)cc1` (centres unmarked) [Satolol], the “increase in the heart cells beating” value (dosing with 10 nM) is 30-40%.
